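Briefly, cells in 96-well plates were exposed to five compound concentrations for 48 h, and endpoints were estimated by linear interpolation. TGI: total growth inhibition.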
Assays:
Assay in all cases: NCI tumour cell line growth inhibition, 48 h
SR leukemia = test system: SR leukemia
NCI-H23 lung = test system: NCI-H23 lung
K-562 leukemia = test system: K-562 leukemia
LOX IMVI melanoma = test system: LOX IMVI melanoma
HCC-2998 colon = test system: HCC-2998 colon
UO-31 renal = test system: UO-31 renal
COLO 205 colon = test system: COLO 205 colon
MDA-MB-435 = test system: MDA-MB-435
SF-295 CNS = test system: SF-295 CNS
T-47D breast = test system: T-47D breast
NCI/ADR-RES ovarian = test system: NCI/ADR-RES ovarian
SF-539 CNS = test system: SF-539 CNS
SNB-75 CNS = test system: SNB-75 CNS
SK-MEL-5 melanoma = test system: SK-MEL-5 melanoma
TK-10 renal = test system: TK-10 renal
UACC-257 melanoma = test system: UACC-257 melanoma
U251 CNS = test system: U251 CNS
OVCAR-3 ovarian = test system: OVCAR-3 ovarian
NCI-H522 lung = test system: NCI-H522 lung
SF-268 CNS = test system: SF-268 CNS
SW-620 colon = test system: SW-620 colon
HOP-62 NSCLC = test system: HOP-62 NSCLC
SNB-19 CNS = test system: SNB-19 CNS
786-0 renal = test system: 786-0 renal
RPMI-8226 leukemia = test system: RPMI-8226 leukemia
SN12C renal = test system: SN12C renal
MOLT-4 leukemia = test system: MOLT-4 leukemia
UACC-62 melanoma = test system: UACC-62 melanoma
EKVX NSCLC = test system: EKVX NSCLC
A498 renal = test system: A498 renal
OVCAR-4 ovarian = test system: OVCAR-4 ovarian
MDA-N = test system: MDA-N
CCRF-CEM leukemia = test system: CCRF-CEM leukemia
HL-60(TB) leukemia = test system: HL-60(TB) leukemia
HCT-15 colon = test system: HCT-15 colon
SK-MEL-2 melanoma = test system: SK-MEL-2 melanoma
A549 NSCLC = test system: A549 NSCLC
PC-3 prostate = test system: PC-3 prostate
SK-OV-3 ovarian = test system: SK-OV-3 ovarian
MALME-3M melanoma = test system: MALME-3M melanoma
MDA-MB-231 breast = test system: MDA-MB-231 breast
OVCAR-8 ovarian = test system: OVCAR-8 ovarian
SK-MEL-28 melanoma = test system: SK-MEL-28 melanoma
M14 melanoma = test system: M14 melanoma
HOP-92 NSCLC = test system: HOP-92 NSCLC
CAKI-1 renal = test system: CAKI-1 renal
ACHN renal = test system: ACHN renal
HS 578T breast = test system: HS 578T breast
NCI-H226 lung = test system: NCI-H226 lung
HCT-116 colon = test system: HCT-116 colon
RXF 393 renal = test system: RXF 393 renal
OVCAR-5 ovarian = test system: OVCAR-5 ovarian
IGROV1 ovarian = test system: IGROV1 ovarian
HT29 colon = test system: HT29 colon
KM12 colon = test system: KM12 colon
NCI-H460 lung = test system: NCI-H460 lung
DU-145 prostate = test system: DU-145 prostate
BT-549 breast = test system: BT-549 breast
MCF7 breast = test system: MCF7 breast

`Nc1cccc(C2CCCc3c2[nH]c2ccccc32)c1` (centres undefined) showed a TGI (SR leukemia) of 31.4 µM, a TGI (NCI-H23 lung) of 46.4 µM and a TGI (K-562 leukemia) of 48.7 µM. The TGI (LOX IMVI melanoma) was 25.4 µM, the TGI (HCC-2998 colon) was 61 µM and the TGI (UO-31 renal) was over 100 µM. For the same molecule, the TGI (COLO 205 colon) was 43.6 µM, the TGI (MDA-MB-435) was 41.1 µM and the TGI (SF-295 CNS) was 64.5 µM. For the same molecule, the TGI (T-47D breast) was 54.7 µM, the TGI (NCI/ADR-RES ovarian) was 38.8 µM and the TGI (SF-539 CNS) was 40.6 µM. It also gave a TGI (SNB-75 CNS) of 36.1 µM, a TGI (SK-MEL-5 melanoma) of 33.1 µM and a TGI (TK-10 renal) of over 100 µM. It also gave a TGI (UACC-257 melanoma) of 69.1 µM, a TGI (U251 CNS) of 28.9 µM and a TGI (OVCAR-3 ovarian) of over 100 µM. The TGI (NCI-H522 lung) was 34.1 µM, the TGI (SF-268 CNS) was 56.4 µM and the TGI (SW-620 colon) was 42.6 µM. It also gave a TGI (HOP-62 NSCLC) of over 100 µM, a TGI (SNB-19 CNS) of 72.7 µM and a TGI (786-0 renal) of 41.5 µM. The TGI (RPMI-8226 leukemia) was 56.6 µM, the TGI (SN12C renal) was 32.7 µM and the TGI (MOLT-4 leukemia) was 54.1 µM. For the same molecule, the TGI (UACC-62 melanoma) was 31.1 µM, the TGI (EKVX NSCLC) was 67.5 µM and the TGI (A498 renal) was 28.9 µM. The TGI (OVCAR-4 ovarian) was over 100 µM, the TGI (MDA-N) was 37.4 µM and the TGI (CCRF-CEM leukemia) was 57 µM. For the same molecule, the TGI (HL-60(TB) leukemia) was 43 µM, the TGI (HCT-15 colon) was 40.5 µM and the TGI (SK-MEL-2 melanoma) was 37.8 µM. For the same molecule, the TGI (A549 NSCLC) was 47.7 µM, the TGI (PC-3 prostate) was 53.9 µM and the TGI (SK-OV-3 ovarian) was 70.4 µM. It also gave a TGI (MALME-3M melanoma) of 48.3 µM, a TGI (MDA-MB-231 breast) of 37 µM and a TGI (OVCAR-8 ovarian) of 34.8 µM. The TGI (SK-MEL-28 melanoma) was over 100 µM, the TGI (M14 melanoma) was 62.4 µM and the TGI (HOP-92 NSCLC) was 42.7 µM. It also gave a TGI (CAKI-1 renal) of 69.2 µM, a TGI (ACHN renal) of 76.8 µM and a TGI (HS 578T breast) of 43.7 µM. The TGI (NCI-H226 lung) was 47.9 µM, the TGI (HCT-116 colon) was 34 µM and the TGI (RXF 393 renal) was 39.3 µM. It also gave a TGI (OVCAR-5 ovarian) of 45.8 µM, a TGI (IGROV1 ovarian) of 39.8 µM and a TGI (HT29 colon) of 33.4 µM. For the same molecule, the TGI (KM12 colon) was 49.8 µM, the TGI (NCI-H460 lung) was 73.6 µM and the TGI (DU-145 prostate) was over 100 µM. The TGI (BT-549 breast) was 41.9 µM and the TGI (MCF7 breast) was 54.7 µM.
